Reference: patent publication US6673795B2, “Pyrimidine, pyrazine and triazane derivatives” (Hoffmann-La Roche Inc., priority 2001, dated 2004)

Legend:
rat mGluR1a receptor = target: T1, rat mGluR1a receptor (Rattus norvegicus, UniProt P23385); assay: Binding assay for the characterization of mGluR 1 antagonistic properties (tritiated radioligand displacement); details: membranes of HEK 293 cells transiently transfected with rat mGluR1a; tritiated 1-ethyl-2-methyl-6-oxo-4-(1,1,2-tritritio-1,2,4,5-tetrahydro-benzo[d]azepin-3-yl)-1,6-dihydro-pyrimidine-5-carbonitrile at 3 nM; 1 hour at room temperature
T1 construct: expressed in transfected cells; host or cells: HEK 293 cells, transient transfection; membrane preparation
T1 sequence (P23385 19-1199): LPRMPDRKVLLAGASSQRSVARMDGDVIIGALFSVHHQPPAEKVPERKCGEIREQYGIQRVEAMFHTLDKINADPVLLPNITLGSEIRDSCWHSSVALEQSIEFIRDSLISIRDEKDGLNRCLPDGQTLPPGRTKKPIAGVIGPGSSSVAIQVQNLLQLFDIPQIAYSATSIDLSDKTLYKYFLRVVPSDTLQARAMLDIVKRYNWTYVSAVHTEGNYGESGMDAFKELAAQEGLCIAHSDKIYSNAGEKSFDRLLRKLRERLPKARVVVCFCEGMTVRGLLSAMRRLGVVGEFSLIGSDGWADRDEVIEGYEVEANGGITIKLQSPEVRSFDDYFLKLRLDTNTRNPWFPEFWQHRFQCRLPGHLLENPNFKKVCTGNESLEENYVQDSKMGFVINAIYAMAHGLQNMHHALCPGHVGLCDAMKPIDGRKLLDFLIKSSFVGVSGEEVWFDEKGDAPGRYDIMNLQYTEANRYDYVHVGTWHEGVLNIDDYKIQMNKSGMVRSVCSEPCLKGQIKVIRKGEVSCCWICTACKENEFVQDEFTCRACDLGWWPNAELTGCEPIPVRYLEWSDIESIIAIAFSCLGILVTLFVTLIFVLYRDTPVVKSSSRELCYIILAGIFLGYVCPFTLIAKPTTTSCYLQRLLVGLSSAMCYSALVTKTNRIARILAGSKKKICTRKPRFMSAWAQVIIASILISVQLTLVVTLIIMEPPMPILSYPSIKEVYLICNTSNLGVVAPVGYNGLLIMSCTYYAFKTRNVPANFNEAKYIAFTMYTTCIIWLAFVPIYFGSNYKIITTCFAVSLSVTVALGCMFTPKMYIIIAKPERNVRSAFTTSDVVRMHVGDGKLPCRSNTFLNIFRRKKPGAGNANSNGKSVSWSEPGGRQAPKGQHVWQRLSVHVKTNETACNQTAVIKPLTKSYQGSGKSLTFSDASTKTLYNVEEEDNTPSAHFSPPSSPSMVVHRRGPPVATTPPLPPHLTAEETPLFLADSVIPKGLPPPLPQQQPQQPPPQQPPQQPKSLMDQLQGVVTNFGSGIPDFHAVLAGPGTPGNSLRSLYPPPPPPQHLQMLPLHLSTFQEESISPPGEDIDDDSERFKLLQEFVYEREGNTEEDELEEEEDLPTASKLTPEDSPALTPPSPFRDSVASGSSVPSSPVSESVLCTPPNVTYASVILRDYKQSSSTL
Method: Binding Assay for the Characterization of mGluR 1 Antagonistic Properties
Binding assay with tritiated 1-ethyl-2-methyl-6-oxo-4-(1,1,2-tritritio-1,2,4,5-tetrahydro-benzo[d]azepin-3-yl)-1,6-dihydro-pyrimidine-5-carbonitrile: HEK 293 cells were transiently transfected with the rat mGluR^1 a receptor. The cells were collected and washed 3 times with PBS. The cell pellets were frozen at −80° C. Membranes were prepared from HEK 293 cells transfected with the rat mGluR^1 a receptor and used in the binding experiments at 10 μg proteins per assay after resuspension in a HEPES NaOH 20 mM, pH=7.4 binding buffer. 1-Ethyl-2-methyl-6-oxo-4-(1,1,2-tritritio-1,2,4,5-tetrahydro-benzo [d]azepin-3-yl)-1,6-dihydro-pyrimidine-5-carbonitrile (S.A 33.4 Ci/mmol) was used at 3 nM final concentration. The incubation with variable concentrations of potential inhibitors was performed for 1 hour at room temperature, the incubate was then filtered onto GF/B glass fiber filter preincubated 1 hour in PEI 0,1% and washed 3 times with 1 ml of cold binding buffer. The radioactivity retained on the unifilter 96 was counted using a Topcount β counter. After correction for non specific binding the data were normalized and the IC50 value calculated using a 4 parameters logistic equation which was fitted to the inhibition curve.

IC50 (rat mGluR1a receptor) [nM]	melting point	Compound
290		N#Cc1c(NCCO)nc(NCCO)nc1N1CCN(c2ccccc2F)CC1 [Example 20, 4-[4-(2-Fluoro-phenyl)-piperazin-1-yl]-2,6-bis-(2-hydroxy-ethylamino)-pyrimidine-5-carbonitrile]
	61 to 64 °C	Cc1nc(OCC(F)(F)F)c([N+](=O)[O-])c(N2CCC(c3ccc(F)cc3)CC2)n1 [Example 13-2, 4-[4-(4-fluoro-phenyl)-piperidin-1-yl]-2-methyl-5-nitro-6-(2,2,2-trifluoro-ethoxy)-pyrimidine]
23		CCc1nc(N2CCN(c3ccccc3)CC2)c(C#N)nc1C [Example 75-2, 6′-ethyl-5′-methyl-4-phenyl-3,4,5,6-tetrahydro-2H-[1,2′]bipyrazinyl-3′-carbonitrile]
660		N#Cc1nnc(NCCO)nc1N1CC=C(c2ccccc2)CC1 [Example 84, 3-(2-Hydroxy-ethylamino)-5-(4-phenyl-3,6-dihydro-2H-pyridin-1-yl)-[1,2,4]triazine-6-carbonitrile]
159		CSc1nc(N)nc(N2CCC(c3ccc(F)cc3)CC2)c1C#N [Example 73, 2-Amino-4-[4-(4-fluoro-phenyl)-piperidin-1-yl]-6-methylsulfanyl-pyrimidine-5-carbonitrile]
42		Cc1nc(N2CCN(c3ccc(F)cc3)CC2)c([N+](=O)[O-])c(=O)n1CCO [Example 8-1, 6-[4-(4-fluoro-phenyl)-piperazin-1-yl]-3-(2-hydroxy-ethyl)-2-methyl-5-nitro-3H-pyrimidin-4-one]
210		CSc1nc(N)nc(N2CCN(c3ccc(F)cc3)CC2)c1C#N [Example 70, 2-amino-4-[4-(4-fluoro-phenyl)-piperazin-1-yl]-6-methylsulfanyl-pyrimidine-5-carbonitrile]
1500		N#Cc1c(NCc2ccccn2)nc(NCc2ccccn2)nc1N1CCN(c2ccccc2)CC1 [Example 40, 4-(4-Phenyl-piperazin-1-yl)-2,6-bis-[(pyridin-2-ylmethyl)-amino]-pyrimidine-5-carbonitrile]
64		N#Cc1c(NC2CC2)nc(NC2CC2)nc1N1CCN(c2ccccc2)CC1 [Example 38, 2,4-Bis-cyclopropylamino-6-(4-phenyl-piperazin-1-yl)-pyrimidine-5-carbonitrile]
	> 250 °C (dec.)	Cc1nc(N2CCN(c3ccccc3)CC2)c([N+](=O)[O-])c(=O)[nH]1 [Example 4, 2-Methyl-5-nitro-6-(4-phenyl-piperazin-1-yl)-3H-pyrimidin-4-one]
700		N#Cc1c(NCCO)nc(NCCO)nc1N1CCC(c2ccc(F)cc2)CC1 [Example 32, 4-[4-(4-Fluoro-phenyl)-piperidin-1-yl]-2,6-bis-(2-hydroxy-ethylamino)-pyrimidine-5-carbonitrile]
1800		N#Cc1c(NCCO)nc(NCCO)nc1N1CCC(C#N)(c2ccccc2)CC1 [Example 37, 4-(4-cyano-4-phenyl-piperidin-1-yl)-2,6-bis-(2-hydroxy-ethylamino)-pyrimidine-5-carbonitrile]
750		N#Cc1c(NCCO)nc(NCCO)nc1N1CCN(c2ccccc2[N+](=O)[O-])CC1 [Example 29, 2,4-Bis-(2-hydroxy-ethylamino)-6-[4-(2-nitro-phenyl)-piperazin-1-yl]-pyrimidine-5-carbonitrile]
390		N#Cc1c(NCCO)nc(NCCO)nc1N1CC=C(c2ccc(F)cc2)CC1 [Example 35, 4-[4-(4-Fluoro-phenyl)-3,6-dihydro-2H-pyridin-1-yl]-2,6-bis-(2-hydroxy-ethylamino)-pyrimidine-5-carbonitrile]
210		CCc1nc(N2CCN(c3ccc(F)cc3)CC2)c(C#N)[n+]([O-])c1C [Example 79-2, 6′-ethyl-4-(4-fluoro-phenyl)-5′-methyl-4′-oxy-3,4,5,6-tetrahydro-2H-[1,2′]bipyrazinyl-3′-carbonitrile]
	92 to 95 °C	Cc1nc(OCC(F)(F)F)c([N+](=O)[O-])c(N2CCN(c3ccc(F)cc3)CC2)n1 [Example 12-2, 4-[4-(4-fluoro-phenyl)-piperazin-1-yl]-2-methyl-5-nitro-6-(2,2,2-trifluoro-ethoxy)-pyrimidine]
350		CSc1ccccc1N1CCN(c2nc(NCCO)nc(NCCO)c2C#N)CC1 [Example 25, 2,4-Bis-(2-hydroxy-ethylamino)-6-[4-(2-methylsulfanyl-phenyl)-piperazin-1-yl]-pyrimidine-5-carbonitrile]
30		N#Cc1c(NCCO)nc(NCc2cccnc2)nc1N1CCC(c2ccccc2)CC1 [Example 54, 4-(2-Hydroxy-ethylamino)-6-(4-phenyl-piperidin-1-yl)-2-[(pyridin-3-ylmethyl)-amino]-pyrimidine-5-carbonitrile]

IC50 (rat mGluR1a receptor) [nM]	melting point	Compound
	155 to 158 °C	N#Cc1ncc(NCCO)nc1N1CCC(c2ccc(F)cc2)CC1 [Example 82, 3-[4-(4-Fluoro-phenyl)-piperidin-1-yl]-5-(2-hydroxy-ethylamino)-pyrazine-2-carbonitrile]
	213 to 215 °C (dec.)	Cc1nc(N2CCC(c3ccc(F)cc3)CC2)c([N+](=O)[O-])c(=O)n1CC#N [Example 16, {4-[4-(4-Fluoro-phenyl)-piperidin-1-yl]-2-methyl-5-nitro-6-oxo-6H-pyrimidin-1-yl}-acetonitrile]
	212 to 216 °C (dec.)	Cc1nc(N2CC=C(c3ccccc3)CC2)c([N+](=O)[O-])c(=O)[nH]1 [Example 6, 2-Methyl-5-nitro-6-(4-phenyl-3,6-dihydro-2H-pyridin-1-yl)-3H-pyrimidin-4-one]
	114 to 117 °C	Cc1nc(OCC(F)(F)F)c([N+](=O)[O-])c(N2CCC(c3ccccc3)CC2)n1 [Example 9-2, 2-methyl-5-nitro-4-(4-phenyl-piperidin-1-yl)-6-(2,2,2-trifluoro-ethoxy)-pyrimidine]
	218 to 221 °C (dec.)	Cc1nc(N2CCC(c3ccc(F)cc3)CC2)c([N+](=O)[O-])c(=O)[nH]1 [Example 7, 6-[4-(4-Fluoro-phenyl)-piperidin-1-yl]-2-methyl-5-nitro-3H-pyrimidin-4-one]
49		CCn1c(C)nc(N2CCN(c3ccc(F)cc3)CC2)c([N+](=O)[O-])c1=O [Example 10-1, 3-ethyl-6-[4-(4-fluoro-phenyl)-piperazin-1-yl]-2-methyl-5-nitro-3H-pyrimidin-4-one]
	> 250 °C (dec.)	Cc1nc(N2CCC(O)(c3ccccc3)CC2)c([N+](=O)[O-])c(=O)[nH]1 [Example 3, 6-(4-Hydroxy-4-phenyl-piperidin-1-yl)-2-methyl-5-nitro-3H-pyrimidin-4-one]
	117 to 120 °C	Cc1nc(N2CCN(c3ccc(F)cc3)CC2)c(C#N)nc1-c1ccccc1 [Example 80, 4-(4-Fluoro-phenyl)-6′-methyl-5′-phenyl-3,4,5,6-tetrahydro-2H-[1,2′]bipyrazinyl-3′-carbonitrile]
150		N#Cc1c(NCCO)nc(NCc2cccnc2)nc1N1CCN(c2ccccc2)CC1 [Example 49, 4-(2-Hydroxy-ethylamino)-6-(4-phenyl-piperazin-1-yl)-2-[(pyridin-3-ylmethyl)-amino]-pyrimidine-5-carbonitrile]
36		N#Cc1c(OCC(F)(F)F)nc(NCCO)nc1N1CCC(c2ccccc2)CC1 [Example 60, 2-(2-Hydroxy-ethylamino)-4-(4-phenyl-piperidin-1-yl)-6-(2,2,2-trifluoro-ethoxy)-pyrimidine-5-carbonitrile]
25		N#Cc1c(Cl)nc(NCC2CC2)nc1N1CCN(c2ccccc2)CC1 [Example 63, 4-chloro-2-(cyclopropylmethyl-amino)-6-(4-phenyl-piperazin-1-yl)-pyrimidine-5-carbonitrile]
	98 to 100 °C	Cc1nc(OC(C)C)c([N+](=O)[O-])c(N2CCN(c3ccc(F)cc3)CC2)n1 [Example 11, 4-[4-(4-Fluoro-phenyl)-piperazin-1-yl]-6-isopropoxy-2-methyl-5-nitro-pyrimidine]
58		Cc1nc(OCCO)c([N+](=O)[O-])c(N2CCN(c3ccc(F)cc3)CC2)n1 [Example 8-2, 2-{6-[4-(4-fluoro-phenyl)-piperazin-1-yl]-2-methyl-5-nitro-pyrimidin-4-yloxy}-ethanol]
	45 to 48 °C	COCCOc1nc(C)nc(N2CCC(c3ccc(F)cc3)CC2)c1[N+](=O)[O-] [Example 14-2, 4-[4-(4-fluoro-phenyl)-piperidin-1-yl]-6-(2-methoxy-ethoxy)-2-methyl-5-nitro-pyrimidine]
33		N#Cc1c(NCCO)nc(NC2CC2)nc1N1CCN(c2ccccc2)CC1 [Example 47, 2-cyclopropylamino-4-(2-hydroxy-ethylamino)-6-(4-phenyl-piperazin-1-yl)-pyrimidine-5-carbonitrile]
140		N#Cc1c(Cl)nc(NCCO)nc1N1CCC(c2ccc(F)cc2)CC1 [Example 68, 4-chloro-6-[4-(4-fluoro-phenyl)-piperidin-1-yl]-2-(2-hydroxy-ethylamino)-pyrimidine-5-carbonitrile]
25		CCc1c(C)nc(N2CCN(c3ccc(F)cc3)CC2)c(C#N)[n+]1[O-] [Example 79-1, 5′-ethyl-4-(4-fluoro-phenyl)-6′-methyl-4′-oxy-3,4,5,6-tetrahydro-2H-[1,2′]bipyrazinyl-3′-carbonitrile]
